Test results published in patent US8263638B2, “Dosing regimens for ion channel modulating compounds” (priority 2004, dated 2012).
Read-outs that look alike come from different tables or passages of the source.

Columns and labels:
[1] = Plasma concentrations of COMPOUND A in electrophysiology study (Example 1); format: in vivo; details: human, intravenous, T = 45 min
Protocol: Blood samples for COMPOUND A concentrations were drawn at 0, 10 and 45 minutes after the start of drug infusion, and at discharge the next day.

[2] = Plasma levels in Atrial Arrhythmia Conversion Trial 1 (Example 6); format: in vivo, human; details: for concentration at 10 min: human, plasma, intravenous
Protocol: Plasma levels were obtained, where possible, for the patients at various time intervals following the initial infusion. The time intervals were 10 minutes (i.e., immediately after the initial infusion), 35 minutes (i.e., immediately after the second infusion where applicable), 50 minutes, 90 minutes, and 24 hours.

[3] = tested on: atrial fibrillation of 3 hours to 45 days; assay: Conversion of recent onset atrial fibrillation to sinus rhythm (Example 3); format: in vivo, human; details: for Number of Patients Converted to Sinus Rhythm / Patients (%) Converted to Sinus Rhythm: within 90 minutes
Protocol: The primary endpoint of this study was the proportion of patients with atrial fibrillation duration of 3 hours to 7 days who had treatment-induced conversion to sinus rhythm within 90 minutes of treatment. Secondary endpoints included the time-to-conversion of atrial fibrillation to sinus rhythm in patients with atrial fibrillation duration of 3 hours to 7 days; the proportion of patients with atrial fibrillation of 8 to 45 days who had treatment-induced conversion to sinus rhythm within 90 minutes of treatment, and the proportion of patients in the entire group with atrial fibrillation of 3 hours to 45 days who had treatment-induced conversion to sinus rhythm within 90 minutes of treatment.
336 patients were randomized in a 2:1 ratio of COMPOUND A to placebo (221 patients received COMPOUND A and 115 patients received placebo) and stratified by atrial fibrillation duration of 3 hours to 7 days and 8 to 45 days.
A first 10-minute infusion of a test compound (placebo or 3 mg/kg of COMPOUND A) was given to each patient. A second 10-minute infusion (placebo or 2 mg/kg of COMPOUND A) was given 15 minutes later if atrial fibrillation was not terminated. Safety was assessed by the incidence of adverse events, vital signs, laboratory data, ECG and holter monitoring.

[4] = tested on: atrial fibrillation duration from 3 hours to 45 days; assay: Atrial Arrhythmia Conversion Trial 1, Phase III (Example 6); format: in vivo, human; details: for median time to conversion: responders
Protocol: This study was conducted to assess the efficacy and safety of COMPOUND A in the conversion of atrial fibrillation to sinus rhythm in humans. The study was a randomized, double-blind, placebo-controlled Phase III study.
Patients were randomized in a 2:1 ratio (COMPOUND A:placebo) and stratified by atrial fibrillation duration. The entire group of patients (pts) had atrial fibrillation duration from 3 hours to 45 days. One subgroup had atrial fibrillation duration from 3 hours to 7 days. Another subgroup had atrial fibrillation duration from 8 days to 45 days.
The primary endpoint of the study was the proportion of patients with atrial fibrillation duration of 3 hours to 7 days who had treatment-induced conversion of atrial fibrillation to sinus rhythm with 90 minutes. Secondary endpoints include the time-to-conversion of atrial fibrillation to sinus rhythm in patients with atrial fibrillation of 3 hours to 7 days and the proportion of patients with termination of atrial fibrillation within 90 minutes in the subgroup of patients with 8 days to 45 days of atrial fibrillation duration and in the entire group of patients with 3 hours to 45 days of atrial fibrillation duration.
Dosing was as follows: Placebo or 3.0 mg/kg of COMPOUND A was administered by infusion over a 10 minute period, followed by a 15-minute observation period. If atrial fibrillation was not terminated, placebo or 2.0 mg/kg of COMPOUND A was adminstered by infusion over a 10 minute period.
The patient population was randomized (n=[…]). […] There were 220 patients in the subgroup having 3 hours to 7 days atrial fibrillation. Of these 220 patients, 75 received placebo and 145 received COMPOUND A. There were 116 patients in the subgroup having 8 days to 45 days atrial fibrillation. Of these 116 patients, 40 received placebo and 76 received COMPOUND A.

[5] = patients receiving both infusions
[6] = patients receiving only a first infusion
[7] = 30-day interval following administration
[8] = AF 8-45 days, 3 mg/kg then 2 mg/kg
[9] = AF 3 hr-7 days, 3 mg/kg then 2 mg/kg
[10] = 30-day follow-up period after dosing, n = 221
[11] = 24 hour period post-dosing, holter, n = 221
[12] = 24 hour time period following dosing, n = 221
[13] = non-responders with attempted cardioversion

COc1ccc(CCO[C@@H]2CCCC[C@H]2N2CC[C@@H](O)C2)cc1OC.Cl [COMPOUND A, (1R,2R)-2-[(3R)-hydroxypyrrolidinyl]-1-(3,4-dimethoxyphenethoxy)cyclohexane monohydrochloride]
concentration at 45 min ([1]; Dose Level 1, 2 mg/kg): 1080 ± 279 ng/mL
concentration at 45 min ([1]; Dose Level 2, 4 mg/kg): 2170 ± 422 ng/mL
concentration at 10 min ([2]; 2 mg/kg, patients receiving both infusions (3.0 + 2.0 mg/kg), read-out: Plasma Concentration of COMPOUND A at 10 min., Mean): 3910 ng/mL
concentration at 10 min ([2]; 3 mg/kg, patients receiving only a first infusion (3.0 mg/kg), read-out: Plasma Concentration of COMPOUND A at 10 min., Mean): 4280 ng/mL
concentration at 10 min ([2]; 3 mg/kg, patients receiving only a first infusion, read-out: Plasma Concentration of COMPOUND A at 10 min., Maximum): 11600 ng/mL
concentration at 10 min ([2]; 3 mg/kg, patients receiving only a first infusion, read-out: Plasma Concentration of COMPOUND A at 10 min., Median): 4080 ng/mL
concentration at 10 min ([2]; 3 mg/kg, patients receiving only a first infusion, read-out: Plasma Concentration of COMPOUND A at 10 min., Minimum): 0 ng/mL
concentration at 10 min ([2]; patients receiving both infusions, read-out: Plasma Concentration of COMPOUND A at 10 min., Maximum): 9330 ng/mL
concentration at 10 min ([2]; patients receiving both infusions, read-out: Plasma Concentration of COMPOUND A at 10 min., Median): 4070 ng/mL
concentration at 10 min ([2]; patients receiving both infusions, read-out: Plasma Concentration of COMPOUND A at 10 min., Minimum): 0 ng/mL
Maximum Plasma Concentration of COMPOUND A, Maximum [2, 5]: 9330 ng/mL
Maximum Plasma Concentration of COMPOUND A, Median [2, 5]: 4855 ng/mL
Maximum Plasma Concentration of COMPOUND A, Minimum [2, 5]: 1430 ng/mL
Maximum Plasma Concentration of COMPOUND A, Mean ([2]; patients receiving both infusions (3.0 + 2.0 mg/kg)): 4662 ng/mL
Maximum Plasma Concentration of COMPOUND A, Maximum [2, 6]: 11600 ng/mL
Maximum Plasma Concentration of COMPOUND A, Median [2, 6]: 4075 ng/mL
Maximum Plasma Concentration of COMPOUND A, Minimum [2, 6]: 7 ng/mL
Maximum Plasma Concentration of COMPOUND A, Mean ([2]; patients receiving only a first infusion (3.0 mg/kg)): 4466 ng/mL
patients with recurrence of atrial fibrillation (serious adverse event) [3, 7]: 6%
patients with serious adverse events [3, 7]: 13%
converted patients relapsed within 24 hrs of administration ([3]; 3 hours to 7 days group converters): one
median time to conversion ([3]; 3 hours to 7 days group, seventy-five converters): eleven
Number of Patients Converted to Sinus Rhythm [3, 8]: 6
Patients (%) Converted to Sinus Rhythm [3, 8]: 8%
Number of Patients Converted to Sinus Rhythm [3, 9]: 75
Patients (%) Converted to Sinus Rhythm [3, 9]: 52%
Number of Patients Converted to Sinus Rhythm ([3]; Entire Group, AF 3 hr-45 days): 83
Patients (%) Converted to Sinus Rhythm ([3]; Entire Group, AF 3 hr-45 days): 38%
drug-related Torsades de Pointes ([3]; in vivo): no cases
patients with transient alteration in taste ([3]; in vivo): 30%
serious adverse events: Cardiac disorders (%) [4, 10]: 10.0%
serious adverse events: Cardiac disorders (number) [4, 10]: 22
serious adverse events: Infections and infestations (%) [4, 10]: 1.4%
serious adverse events: Infections and infestations (number) [4, 10]: 3
serious adverse events: Nervous system disorders (%) [4, 10]: 0.0%
serious adverse events: Nervous system disorders (number) [4, 10]: 0
serious adverse events: Respiratory, thoracic and mediastinal disorders (%) [4, 10]: 1.8%
serious adverse events: Respiratory, thoracic and mediastinal disorders (number) [4, 10]: 4
serious adverse events: Total (%) [4, 10]: 13.1%
serious adverse events: Total (number) [4, 10]: 29
serious adverse events: Vascular disorders (%) [4, 10]: 1.4%
serious adverse events: Vascular disorders (number) [4, 10]: 3
Monomorphic sustained ventricular tachycardia (%) [4, 11]: 0.0%
Monomorphic sustained ventricular tachycardia (number) [4, 11]: 0
Monomorphic unsustained aberrant condition (%) [4, 11]: 1.4%
Monomorphic unsustained aberrant condition (number) [4, 11]: 3
Monomorphic unsustained ventricular tachycardia (%) [4, 11]: 0.9%
Monomorphic unsustained ventricular tachycardia (number) [4, 11]: 2
Polymorphic sustained ventricular tachycardia (%) [4, 11]: 0.0%
Polymorphic sustained ventricular tachycardia (number) [4, 11]: 0
Polymorphic unsustained aberrant condition (%) [4, 11]: 0.0%
Polymorphic unsustained aberrant condition (number) [4, 11]: 0
Polymorphic unsustained ventricular tachycardia (%) [4, 11]: 0.0%
Polymorphic unsustained ventricular tachycardia (number) [4, 11]: 0
Torsades de Pointes (%) [4, 11]: 0.0%
Torsades de Pointes (number) [4, 11]: 0
Ventricular Rhythm >=5 beats: Total (%) [4, 11]: 2.3%
Ventricular Rhythm >=5 beats: Total (number) [4, 11]: 5
Ventricular escape rhythm (%) [4, 11]: 0.0%
Ventricular escape rhythm (number) [4, 11]: 0
treatment-emergent adverse event: Atrial fibrillation (%) [4, 12]: 4%
treatment-emergent adverse event: Atrial fibrillation (number) [4, 12]: 8
treatment-emergent adverse event: Cough (%) [4, 12]: 5%
treatment-emergent adverse event: Cough (number) [4, 12]: 11
treatment-emergent adverse event: Dysgeusia (%) [4, 12]: 30%
treatment-emergent adverse event: Dysgeusia (number) [4, 12]: 66
treatment-emergent adverse event: Hypotension (%) [4, 12]: 6%
treatment-emergent adverse event: Hypotension (number) [4, 12]: 14
treatment-emergent adverse event: Nausea (%) [4, 12]: 9%
treatment-emergent adverse event: Nausea (number) [4, 12]: 20
treatment-emergent adverse event: Paraesthesia (%) [4, 12]: 11%
treatment-emergent adverse event: Paraesthesia (number) [4, 12]: 24
treatment-emergent adverse event: Pruritus (%) [4, 12]: 6%
treatment-emergent adverse event: Pruritus (number) [4, 12]: 13
treatment-emergent adverse event: Sneezing (%) [4, 12]: 16%
treatment-emergent adverse event: Sneezing (number) [4, 12]: 36
responders converted after the first dosing ([4]; both the short duration subgroup and the entire group): 76%
responders relapsed into atrial fibrillation in the first 24 hours post-dosing ([4]; in vivo): one
Electrical cardioversion was attempted (%) ([4]; n = 221): 43%
Electrical cardioversion was attempted (number) ([4]; n = 221): 96
Successfully converted by electrical cardioversion (%) [4, 13]: 85%
Successfully converted by electrical cardioversion (number) [4, 13]: 82
median time to conversion ([4]; entire group (3 hrs-45 days atrial fibrillation)): 11.5 min
median time to conversion ([4]; short duration subgroup (3 hrs-7 days atrial fibrillation)): 11 min
